Experimental data as given in PMC5216742, “Discovery and characterization of a novel potent type II native and mutant BCR-ABL inhibitor (CHMFL-074) for Chronic Myeloid Leukemia (CML)” (Oncotarget, 2016).
Read-outs that look alike come from different tables or passages of the source.

How the values were obtained:
RET(M918T) = target: T1, RET(M918T) (Homo sapiens, UniProt P07949, M918T); experiment: KinomeScan profiling; format: binding; conditions: 1 µM CHMFL-074; read-out: % Control
T1 construct: purchased DiscoveRx (KinomeScan service)

ABL1 kinase = target: T2, ABL1 kinase (Homo sapiens, UniProt P00519); experiment: Invitrogen Z'LYTE biochemical kinase assay
T2 construct: A construct encoding c-ABL residues 229–500 with a His tag; made in house; host or cells: SF9 insect cells (baculovirus, pFASTHTA)
Method: A construct encoding c-ABL residues 229–500 with a His tag was cloned into baculovirus expression vector pFASTHTA. The protein was expressed by infecting SF9 cells with high titer viral stocks for 48 hours. Cells were harvested and lysed in 30 mM Tris pH 7.4, 150 mM NaCl, 3 mM KCl, 10% glycerol, 1 mM PMSF, 2 mM TCEP, 1 mM ADP, 20 mM Imidazole. The supernatant was loaded to Ni-NTA Column (QIAGEN, 1018244). Then the proteins were gradient washed using the same buffer with 50 mM, 100 mM imidazole, then the ABL protein was eluted with Elution buffer (20 mM Tris, 500 mM NaCl, 1% glycerol, 1 mM TCEP, 0.5 mM ADP, 300 mM Imidazole, pH 8.0). The eluted protein was loaded on desalt column PD-10(GE) to change the buffer to 20 mM Tris, 500 mM NaCl, 1% glycerol, 2 mM TCEP, pH 8.0. The protein was concentrated to 1 mg/ml and aliquots were frozen and stored at −80 °C.
The fluorescence resonance energy transfer-based Z′-LYTE kinase assay (Invitrogen, USA) was used to evaluate the IC50 value of CHMFL-074 for inhibition of ABL and KIT kinase. […] After 1 hour incubation, the reaction was developed and terminated, and the fluorescence measured with an automated plate reader (SpectraMax I3, USA). […]

BaF3 = experiment: Anti-proliferation, BaF3 isogenic cell lines; format: cell-based; conditions: Mus musculus, BaF3, 72 h
Description: (§1) Retroviral constructs for fusion kinases were made based on the pMSCVpuro (Clontech) backbone. For TEL fusion vectors, the first 1 kb of human TEL gene with an artificial myristoylation sequence ([…]) was cloned into pMSCVpuro retroviral vector, followed by a 3xFLAG tag sequence and a stop codon; for BCR fusion vectors, the first 2.8 kb coding region of p210 amplified from K562 cell line was used in fusion constructs. Then the kinase domain coding sequences were inserted in-frame between TEL/BCR and 3xFLAG sequences. All mutagenesis were performed using the QuikChange Site-Directed Mutagenesis Kit (Stratagene) following the manufacturer's instructions. Retrovirus was packaged in HEK293T cells by transfecting kinase-fusion MSCV vectors together with two helper plasmids, virus supernatants were harvested 48 hours after transfection and filtered before infection. Then BaF3 cells were infected with harvested virus supernatants using spinoculation protocol and stable cell lines were obtained by puromycin selection for 48 hours. A second selection in the absence of IL-3 was performed to obtain IL-3 independent cell lines that solely depend on the introduced kinase activities for cell proliferation.
(§2) A density of 1 × 10^4 to 2.5 × 10^4 cells/mL cells were mixed with various concentrations of compounds then 100 μL suspension was added to each well and incubated for 72 hours. Cell viability was determined using the CellTiter-Glo assay (Promega, USA) or CCK-8 assay (Beboy, China). Both assays were performed according to the manufacturer instructions. For CellTiter-Glo assay, luminescence was determined in a multi-label reader (Envision, PerkinElmer, USA). […] Data were normalized to control group (DMSO). GI50 were calculated using Prism 6.0 (GraphPad Software, San Diego, CA).

P210-E255K-BaF3 = experiment: Anti-proliferation, BaF3 isogenic cell lines; format: cell-based; conditions: Mus musculus, BaF3, 72 h
Description: as §1, §2

P210-F317I-BaF3 = experiment: Anti-proliferation, BaF3 isogenic cell lines; format: cell-based; conditions: Mus musculus, BaF3, 72 h
Description: as §1, §2

P210-F317L-BaF3 = experiment: Anti-proliferation, BaF3 isogenic cell lines; format: cell-based; conditions: Mus musculus, BaF3, 72 h
Description: as §1, §2

P210-H369P-BaF3 = experiment: Anti-proliferation, BaF3 isogenic cell lines; format: cell-based; conditions: Mus musculus, BaF3, 72 h
Description: as §1, §2

P210-M351T-BaF3 = experiment: Anti-proliferation, BaF3 isogenic cell lines; format: cell-based; conditions: Mus musculus, BaF3, 72 h
Description: as §1, §2

P210-Q252H-BaF3 = experiment: Anti-proliferation, BaF3 isogenic cell lines; format: cell-based; conditions: Mus musculus, BaF3, 72 h
Description: as §1, §2

P210-T315I-BaF3 = experiment: Anti-proliferation, BaF3 isogenic cell lines; format: cell-based; conditions: Mus musculus; P210-T315I-BaF3, 72 hours
Description: as §1, §2

P210-Y253F-BaF3 = experiment: Anti-proliferation, BaF3 isogenic cell lines; format: cell-based; conditions: Mus musculus, BaF3, 72 h
Description: as §1, §2

TEL-DDR1-BaF3 = experiment: Anti-proliferation, BaF3 isogenic cell lines; format: cell-based; conditions: Mus musculus; TEL-DDR1-BaF3, 72 hours
Description: as §1, §2

Tel-BLK-BaF3 = experiment: Anti-proliferation, BaF3 isogenic cell lines; format: cell-based; conditions: Mus musculus, BaF3, 72 h
Description: as §1, §2

Tel-HCK-BaF3 = experiment: Anti-proliferation, BaF3 isogenic cell lines; format: cell-based; conditions: Mus musculus, BaF3, 72 h
Description: as §1, §2

Tel-PDGFRα-BaF3 = experiment: Anti-proliferation, BaF3 isogenic cell lines; format: cell-based; conditions: Mus musculus, BaF3, 72 h
Description: as §1, §2

Tel-PDGFRβ-BaF3 = experiment: Anti-proliferation, BaF3 isogenic cell lines; format: cell-based; conditions: Mus musculus, BaF3, 72 h
Description: as §1, §2

[1] = In vivo pharmacokinetics study; conditions: male, Sprague-Dawley, plasma, rat; for MRT inf: read-out: MRT(0-∞)
Method: The final concentration of the stock solution was 1 mg/mL for administration. […] Each time about 0.2 mL blood was collected through the jugular vein adding heparin for anticoagulation and kept on ice. Then plasma was separated by centrifugation at 8000 rpm for 6 minutes at 2–8°C. The obtained plasma was stored at −80°C before analysis. After finishing the test, all surviving animals will be transferred to the repository or euthanasia (CO2 asphyxiation).

T1 sequence (P07949 29-1114 M918T): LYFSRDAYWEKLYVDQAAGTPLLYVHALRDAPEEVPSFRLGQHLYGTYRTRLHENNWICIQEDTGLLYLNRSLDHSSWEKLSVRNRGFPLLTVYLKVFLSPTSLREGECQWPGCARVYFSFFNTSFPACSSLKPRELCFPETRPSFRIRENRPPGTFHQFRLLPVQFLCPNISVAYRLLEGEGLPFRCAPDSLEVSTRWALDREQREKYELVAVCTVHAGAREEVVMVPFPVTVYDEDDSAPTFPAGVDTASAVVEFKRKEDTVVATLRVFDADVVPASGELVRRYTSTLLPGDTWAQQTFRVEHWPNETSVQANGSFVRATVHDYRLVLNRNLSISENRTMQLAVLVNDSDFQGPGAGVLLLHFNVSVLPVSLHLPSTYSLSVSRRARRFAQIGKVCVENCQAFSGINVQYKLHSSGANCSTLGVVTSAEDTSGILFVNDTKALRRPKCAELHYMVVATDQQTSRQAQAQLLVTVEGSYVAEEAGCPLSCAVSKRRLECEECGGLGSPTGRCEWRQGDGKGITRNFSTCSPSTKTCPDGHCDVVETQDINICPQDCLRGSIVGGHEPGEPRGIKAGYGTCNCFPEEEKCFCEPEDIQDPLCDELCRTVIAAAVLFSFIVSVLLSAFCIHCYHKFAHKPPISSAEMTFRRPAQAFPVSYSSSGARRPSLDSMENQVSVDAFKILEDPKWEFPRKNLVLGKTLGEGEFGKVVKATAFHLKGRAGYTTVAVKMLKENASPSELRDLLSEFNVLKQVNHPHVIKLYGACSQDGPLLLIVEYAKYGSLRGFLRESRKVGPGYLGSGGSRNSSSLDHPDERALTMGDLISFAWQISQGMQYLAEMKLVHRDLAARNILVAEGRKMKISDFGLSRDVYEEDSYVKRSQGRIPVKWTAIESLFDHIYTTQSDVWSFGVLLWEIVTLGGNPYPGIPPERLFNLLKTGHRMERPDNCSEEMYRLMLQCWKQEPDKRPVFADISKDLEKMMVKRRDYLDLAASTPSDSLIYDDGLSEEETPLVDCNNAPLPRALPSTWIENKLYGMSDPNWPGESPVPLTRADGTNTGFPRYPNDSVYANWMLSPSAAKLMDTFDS
T2 sequence (P00519 229-500): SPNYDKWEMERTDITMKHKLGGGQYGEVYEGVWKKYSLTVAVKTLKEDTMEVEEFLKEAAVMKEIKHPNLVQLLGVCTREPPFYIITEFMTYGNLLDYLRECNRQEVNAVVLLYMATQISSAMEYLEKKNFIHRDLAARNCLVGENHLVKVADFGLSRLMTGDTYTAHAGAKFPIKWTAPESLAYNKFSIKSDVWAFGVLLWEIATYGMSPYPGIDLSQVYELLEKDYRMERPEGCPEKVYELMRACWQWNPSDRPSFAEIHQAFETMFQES

Cc1ccc(NC(=O)c2ccc(CN3CCN(C)CC3)c(C(F)(F)F)c2)cc1OC1CCN(C(=O)c2cccnc2)CC1 [CHMFL-074]
remaining binding at 1 µM (RET(M918T)): 0.15%
IC50 (ABL1 kinase): 25 nM
GI50 (BaF3): > 10000 nM
GI50 (P210-E255K-BaF3): 774 nM
GI50 (P210-F317I-BaF3): 355 nM
GI50 (P210-F317L-BaF3): 218 nM
GI50 (P210-H369P-BaF3): 1040 nM
GI50 (P210-M351T-BaF3): 349 nM
GI50 (P210-Q252H-BaF3): 118 nM
GI50 (P210-T315I-BaF3): > 10000 nM
GI50 (P210-Y253F-BaF3): 338 nM
GI50 (TEL-DDR1-BaF3): 3520 nM
GI50 (Tel-BLK-BaF3): 2860 nM
GI50 (Tel-HCK-BaF3): > 10000 nM
GI50 (Tel-PDGFRα-BaF3): 95 nM
GI50 (Tel-PDGFRβ-BaF3): 52 nM
AUC(0-inf) ([1]; IV 1mg/kg, mean): 340 ng·h/mL
AUC(0-t) ([1]; IV 1mg/kg, mean): 337 ng·h/mL
Cmax ([1]; IV 1mg/kg, mean): 739 ng/mL
Tmax ([1]; IV 1mg/kg, mean): 0.02 h
half-life ([1]; IV 1mg/kg, mean): 1.23 h
clearance ([1]; IV 1mg/kg, mean, read-out: CLz (converted)): 49.3 mL/min/kg
MRT inf ([1]; IV 1mg/kg, mean): 1.29 h
Vd ([1]; IV 1mg/kg, mean, read-out: Vz): 5.25 L/kg
AUC(0-inf) ([1]; PO 10 mg/kg, mean): 1460 ng·h/mL
AUC(0-t) ([1]; PO 10 mg/kg, mean): 1130 ng·h/mL
Cmax ([1]; PO 10 mg/kg, mean): 190 ng/mL
Tmax ([1]; PO 10 mg/kg, mean): 4 h
half-life ([1]; PO 10 mg/kg, mean): 3.38 h
MRT inf ([1]; PO 10 mg/kg, mean): 6.58 h
bioavailability ([1]; PO 10 mg/kg, read-out: F (bioavailability)): 42.9%
